Data from PubChem BioAssay (NCI).
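Step 1: Grow cells in 96-well plates. Step 2: Expose to compound for 48 hours at 5 concentrations. Step 3: Interpolate endpoints linearly; if unreached, use highest concentration. Here, GI50 denotes the concentration required for 50% inhibition of growth. TGI: total growth inhibition.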

Legend:
Assay in all cases: inhibition of tumour cell growth, NCI panel, 48 h
OVCAR-5 ovarian = tested on: OVCAR-5 ovarian
U251 CNS = tested on: U251 CNS
PC-3 prostate = tested on: PC-3 prostate
OVCAR-4 ovarian = tested on: OVCAR-4 ovarian
IGROV1 ovarian = tested on: IGROV1 ovarian
HCT-15 colon = tested on: HCT-15 colon
SF-539 CNS = tested on: SF-539 CNS
UO-31 renal = tested on: UO-31 renal
EKVX NSCLC = tested on: EKVX NSCLC
CCRF-CEM leukemia = tested on: CCRF-CEM leukemia

| Compound | TGI (OVCAR-5 ovarian) [µM] | TGI (U251 CNS) [µM] | TGI (PC-3 prostate) [µM] | TGI (OVCAR-4 ovarian) [µM] | TGI (IGROV1 ovarian) [µM] | TGI (HCT-15 colon) [µM] | TGI (SF-539 CNS) [µM] | TGI (UO-31 renal) [µM] | TGI (EKVX NSCLC) [µM] | TGI (CCRF-CEM leukemia) [µM] | GI50 (OVCAR-5 ovarian) [nM] | GI50 (PC-3 prostate) [nM] | GI50 (CCRF-CEM leukemia) [µM] | GI50 (SF-539 CNS) [nM] | GI50 (UO-31 renal) [nM] | GI50 (EKVX NSCLC) [µM] | GI50 (OVCAR-4 ovarian) [µM] | GI50 (U251 CNS) [µM] | GI50 (IGROV1 ovarian) [µM] | GI50 (HCT-15 colon) [µM] |
| --- | --- | --- | --- | --- | --- | --- | --- | --- | --- | --- | --- | --- | --- | --- | --- | --- | --- | --- | --- | --- |
| CCn1cc(C(c2ccc(Cl)cc2)n2ccnc2)c2cc(Br)ccc21 (stereo unspecified) | 25.5 | 30.5 | 22.8 | 22.8 | 24.8 | 30.6 | 41.3 | 20.1 | > 100 |  |  |  |  |  |  |  |  |  |  |  |
| COC1OC(=O)[C@H]2O[N+]([O-])=C(C)[C@@H]12 (stereo partly specified) | > 100 | > 100 |  | > 100 | > 100 | > 100 | > 100 | > 100 | > 100 | > 100 |  |  |  |  |  |  |  |  |  |  |
| C/C(=N\NC(=S)NC(C)C)c1nc2ncccc2[nH]1 | > 100 | > 100 | > 100 | > 100 | > 80.1 | > 100 | > 85 | 44.9 | > 69.7 | > 100 |  |  |  |  |  |  |  |  |  |  |
| O=C1CC(=O)N(c2ccccc2)N1/C(=C/c1ccccc1)c1ccccc1 | > 100 | 27.7 | 47.7 | 60.5 | 43.9 |  |  | 29.2 | > 100 | 3.57 |  |  |  |  |  |  |  |  |  |  |
| C=CC(=O)Nc1cccc(-c2nc(SC)nc(Nc3ccccc3OC)c2C#N)c1 | 5.92 |  | 4.9 |  |  |  | 4.53 | 3.18 | 10.4 | > 100 | 2260 | 1940 | 3.07 | 1930 | 1420 | 2.71 |  |  |  |  |
| Nc1ccccc1Nc1ccccc1C(=O)[O-].Nc1ccccc1Nc1ccccc1C(=O)[O-].[Cu+2] | > 100 | > 100 |  | > 100 | > 100 | > 100 | > 100 | > 100 | > 100 | > 100 |  |  |  |  |  |  | 37.7 |  |  |  |
| O=C(NS(=O)(=O)Nc1ccc(Cl)cc1)OCc1ccc(Cl)cc1Cl | 70.3 | 66.7 | > 100 | 76.9 | 52.8 | > 100 | 40.6 | 44.2 |  | > 100 |  |  |  |  |  |  |  |  |  |  |
| CSC1=Nc2ccccc2N(C)c2c1c(-c1ccccc1)nn2C | > 100 | > 100 | > 100 | > 100 | > 100 | > 100 | > 100 |  | > 100 | 53.1 |  |  |  |  |  |  |  |  |  |  |
| O=[Se]([O-])c1ccccc1.O=[Se]([O-])c1ccccc1.[OH3+].[OH3+].[Pt+2] | 39.1 | 17.2 |  | 10.3 | > 42 | 28.6 | 44.2 | 46.2 | 26 | > 35.9 | 15500 |  | 3.15 | 10600 | 5780 | 6.34 | 2.15 | 9.51 | 9.02 | 6.02 |
| CCC(=O)C(c1ccccc1)c1ccccn1 (stereo unspecified) | > 100 | > 100 | > 100 | > 100 | > 100 | > 100 |  | > 100 | > 100 | > 100 |  |  |  |  |  |  |  |  |  |  |
| O=C(Nc1ccc(I)cc1C(=O)NCCO)c1cccs1 | > 100 | > 100 | > 100 | > 100 | > 100 | > 100 | > 100 | > 100 | > 100 | > 100 |  |  |  |  |  |  |  |  |  |  |
| N#Cc1c(NC(=S)NC(=O)c2ccccc2)nc2c(c1-c1ccccc1)CCC2 | > 100 | > 100 | > 100 | > 100 | > 100 | > 100 | > 100 | > 100 | > 100 | > 100 |  |  |  |  |  |  |  |  |  |  |
| CC(C)CC(N)C(=O)OCN1C(=O)C2C3C=CC(C2C1=O)C1C2C(=O)N(COC(=O)C(N)CC(C)C)C(=O)C2C31 (stereo unspecified) | > 100 | > 100 |  | > 100 | > 100 | > 64.5 | > 100 | > 100 | > 100 | > 100 |  |  |  |  |  |  |  |  |  |  |
| Cc1[nH]c(/C=C2\C(=O)Nc3ccc(S(=O)(=O)Cc4c(Cl)cccc4Cl)cc32)c(C)c1C(=O)N1CCC[C@@H]1CN1CCCC1 | 3.72 |  | > 21.5 | 70.7 | 7.98 | 3.51 | 2.89 | 3.07 |  |  | 1950 | 1730 |  | 1510 | 1410 |  | 26.1 |  | 3.09 | 1.71 |
